Test results from article PMC11823630, “In vitro potentiation of tetracyclines in Pseudomonas aeruginosa by RW01, a new cyclic peptide” (Antimicrobial Agents and Chemotherapy, 2024).
Converted amounts (≈) assume the structure as drawn.

Key:
P. aeruginosa 125A = assay: MIC, CLSI broth microdilution in BD Phoenix AST Broth; type: cell-based, Pseudomonas aeruginosa; conditions: Pseudomonas aeruginosa; strain 125A; agent alone; 37°C, 18–22 h; three biological replicates
Experimental: (§1) MIC for RW01 was also tested.
(§2) FIC of RW01 (FICRW01)=MIC of RW01 in combination/MIC of RW01 alone,FIC of antibiotic (FICATB)=MIC of ATB in combination/MIC of ATB alone,FICI=FICRW01 +FICATB.
(§3) FICI was interpreted as follows: synergistic effect if FICI is ≤0.5; additive effect if 0.5 < FICI ≤ 1.0; indifferent effect if 1.0 < FICI ≤ 2.0; and finally, antagonistic effect if FICI is >2.0. The average FICI considering the antibiotic MIC (no growth in any of the replicates) at different concentrations of RW01 was calculated ([28]).

P. aeruginosa 125B = assay: as above; type: cell-based, Pseudomonas aeruginosa; conditions: Pseudomonas aeruginosa; strain 125B; agent alone; 37°C, 18–22 h; three biological replicates
Experimental: as §1, §2, §3

P. aeruginosa 41A = assay: as above; type: cell-based, Pseudomonas aeruginosa; conditions: Pseudomonas aeruginosa; strain 41A; agent alone; 37°C, 18–22 h; three biological replicates
Experimental: as §1, §2, §3

P. aeruginosa 41B = assay: as above; type: cell-based, Pseudomonas aeruginosa; conditions: Pseudomonas aeruginosa; strain 41B; agent alone; 37°C, 18–22 h; three biological replicates
Experimental: as §1, §2, §3

P. aeruginosa PAO1 = assay: as above; type: cell-based, Pseudomonas aeruginosa; conditions: Pseudomonas aeruginosa, PAO1, strain PAO1; agent alone; 37°C, 18–22 h; three biological replicates; read-out: MIC
Experimental: as §1, §2, §3

P. aeruginosa PAOUW = assay: as above; type: cell-based, Pseudomonas aeruginosa; conditions: Pseudomonas aeruginosa, strain PAOUW; agent alone; 37°C, 18–22 h; three biological replicates; read-out: MIC
Experimental: as §1, §2, §3

P. aeruginosa PAOUW∆oprF = assay: as above; type: cell-based, Pseudomonas aeruginosa; conditions: Pseudomonas aeruginosa, strain PAOUWΔoprF; agent alone; 37°C, 18–22 h; three biological replicates
Experimental: as §1, §2, §3

P. aeruginosa PAOΔmexR = assay: as above; type: cell-based, Pseudomonas aeruginosa; conditions: Pseudomonas aeruginosa
Experimental: as §1, §2, §3

P. aeruginosa PAOΔmexZ = assay: as above; type: cell-based, Pseudomonas aeruginosa; conditions: Pseudomonas aeruginosa, strain PAOΔmexZ; agent alone; 37°C, 18–22 h; three biological replicates
Experimental: as §1, §2, §3

P. aeruginosa PAOΔoprM = assay: as above; type: cell-based, Pseudomonas aeruginosa; conditions: Pseudomonas aeruginosa
Experimental: as §1, §2, §3

P. aeruginosa PAO1, WT = assay: MIC, Sensititre custom plate; type: cell-based; conditions: Pseudomonas aeruginosa, PAO1, read-out: MIC, Sensititre
Experimental: (§4) Selection of resistant mutants was performed for minocycline with and without RW01 in three independent replicates for wild-type P. aeruginosa reference strain PAO1. Tubes containing Mueller-Hinton broth (MHB) were inoculated and incubated for 24 h at 37°C. Afterward, 1/100 dilution of each tube was incubated at 37°C in MHB to late-exponential growth phase, measured by spectrophotometry at OD600. […] A control plate without antibiotic was included as inoculum control. After overnight incubation, colony counting of each treatment was performed to analyze the generation of resistant population. The mutant prevention concentration (MPC) was defined as the lowest concentration of antibiotic yielding no growth of resistant mutants. Selected mutants were checked for susceptibility profiles by using a Sensititre custom plate (Thermo Fisher Scientific, Massachusetts, USA) for Gram-negative bacteria, following the manufacturer’s instructions.

[1] = system: PAO1 mutant MIN16_1, nalD(T43P); assay: MIC, Sensititre custom plate; type: cell-based; conditions: Pseudomonas aeruginosa, PAO1, read-out: MIC, Sensititre
Experimental: as §4

[2] = system: PAO1 mutant MIN16_2, nalC(aa9∆4), pilQ(nt46∆1); assay: MIC, Sensititre custom plate; type: cell-based; conditions: Pseudomonas aeruginosa, PAO1, read-out: MIC, Sensititre
Experimental: as §4

[3] = system: PAO1 mutant MIN16_3, nfxB(nt79∆14), pilB(N349K); assay: MIC, Sensititre custom plate; type: cell-based; conditions: Pseudomonas aeruginosa, PAO1, read-out: MIC, Sensititre
Experimental: as §4

[4] = system: PAO1 mutant MIN16_4, nalC(T50P), pilM(Q62X); assay: MIC, Sensititre custom plate; type: cell-based; conditions: Pseudomonas aeruginosa, PAO1, read-out: MIC, Sensititre
Experimental: as §4

[5] = system: PAO1 mutant MIN1_RW01_1, pmrB(Y98N); assay: MIC, Sensititre custom plate; type: cell-based; conditions: Pseudomonas aeruginosa, PAO1, read-out: MIC, Sensititre
Experimental: as §4

[6] = system: PAO1 mutant MIN1_RW01_2, mexR(G58E), pilB(G326D), hutC(Y181X); assay: MIC, Sensititre custom plate; type: cell-based; conditions: Pseudomonas aeruginosa, PAO1, read-out: MIC, Sensititre
Experimental: as §4

[7] = system: PAO1 mutant MIN1_RW01_3, pmrB(V215L); assay: MIC, Sensititre custom plate; type: cell-based; conditions: Pseudomonas aeruginosa, PAO1, read-out: MIC, Sensititre
Experimental: as §4

[8] = system: PAO1 mutant MIN2_RW01_1, pmrB(V215L); assay: MIC, Sensititre custom plate; type: cell-based; conditions: Pseudomonas aeruginosa, PAO1, read-out: MIC, Sensititre
Experimental: as §4

[9] = system: PAO1 mutant MIN2_RW01_2, pmrB(M292T); assay: MIC, Sensititre custom plate; type: cell-based; conditions: Pseudomonas aeruginosa, PAO1, read-out: MIC, Sensititre
Experimental: as §4

[10] = system: PAO1 mutant MIN2_RW01_3, parS(V152A); assay: MIC, Sensititre custom plate; type: cell-based; conditions: Pseudomonas aeruginosa, PAO1, read-out: MIC, Sensititre
Experimental: as §4

[11] = system: PAO1 mutant MIN2_RW01_4, pmrB(M292T); assay: MIC, Sensititre custom plate; type: cell-based; conditions: Pseudomonas aeruginosa, PAO1, read-out: MIC, Sensititre
Experimental: as §4

[12] = system: PAO1 mutant MIN32_1, mexR(R63H), pilB(N349K), PA0646(V316G); assay: MIC, Sensititre custom plate; type: cell-based; conditions: Pseudomonas aeruginosa, PAO1, read-out: MIC, Sensititre
Experimental: as §4

[13] = system: PAO1 mutant MIN4_RW01_1, pmrB(R429H); assay: MIC, Sensititre custom plate; type: cell-based; conditions: Pseudomonas aeruginosa, PAO1, read-out: MIC, Sensititre
Experimental: as §4

[14] = system: PAO1 mutant MIN4_RW01_3, pmrB(M292T); assay: MIC, Sensititre custom plate; type: cell-based; conditions: Pseudomonas aeruginosa, PAO1, read-out: MIC, Sensititre
Experimental: as §4

[15] = system: PAO1 mutant MIN4_RW01_4, pmrB(Y98N); assay: MIC, Sensititre custom plate; type: cell-based; conditions: Pseudomonas aeruginosa, PAO1, read-out: MIC, Sensititre
Experimental: as §4

[16] = system: PAO1 mutant MIN8_1, nalD(R3C), pilM(Q62X); assay: MIC, Sensititre custom plate; type: cell-based; conditions: Pseudomonas aeruginosa, PAO1, read-out: MIC, Sensititre
Experimental: as §4

[17] = system: PAO1 mutant MIN8_2, pilZ(nt18InsT); assay: MIC, Sensititre custom plate; type: cell-based; conditions: Pseudomonas aeruginosa, PAO1, read-out: MIC, Sensititre
Experimental: as §4

[18] = system: PAO1 mutant MIN8_3, pilZ(nt18InsT); assay: MIC, Sensititre custom plate; type: cell-based; conditions: Pseudomonas aeruginosa, PAO1, read-out: MIC, Sensititre
Experimental: as §4

[19] = system: PAO1 mutant MIN8_4, pilZ(nt18InsT); assay: MIC, Sensititre custom plate; type: cell-based; conditions: Pseudomonas aeruginosa, PAO1, read-out: MIC, Sensititre
Experimental: as §4

[20] = system: PAO1 mutant MIN1_RW01_4, pmrB(F124L); assay: microbe, parasite or virus in culture; type: cell-based; conditions: Pseudomonas aeruginosa, PAO1, read-out: MIC, Sensititre
Experimental: as §4

[21] = system: PAO1 mutant MIN4_RW01_2, pmrB(F124S); assay: microbe, parasite or virus in culture; type: cell-based; conditions: Pseudomonas aeruginosa, PAO1, read-out: MIC, Sensititre
Experimental: as §4

| SMILES | MIC (P. aeruginosa 125A) | MIC (P. aeruginosa 125B) | MIC (P. aeruginosa 41A) | MIC (P. aeruginosa 41B) | MIC (P. aeruginosa PAO1) | MIC (P. aeruginosa PAOUW) | MIC (P. aeruginosa PAOUW∆oprF) | MIC (P. aeruginosa PAOΔmexR) | MIC (P. aeruginosa PAOΔmexZ) | MIC (P. aeruginosa PAOΔoprM) | MIC (P. aeruginosa PAO1, WT) | MIC [1] | MIC [2] | MIC [3] | MIC [4] | MIC [5] | MIC [6] | MIC [7] | MIC [8] | MIC [9] | also measured |
| --- | --- | --- | --- | --- | --- | --- | --- | --- | --- | --- | --- | --- | --- | --- | --- | --- | --- | --- | --- | --- | --- |
| CC(C)(O/N=C(\C(=O)N[C@@H]1C(=O)N2C(C(=O)[O-])=C(C[n+]3ccccc3)CS[C@H]12)c1csc(N)n1)C(=O)O [Ceftazidime, ceftazidime] | 8 µg/mL | 4 µg/mL | 4 µg/mL | 8 µg/mL | 2 µg/mL | 2 µg/mL | 2 µg/mL | 4 µg/mL | 4 µg/mL | 2 µg/mL | 1 to 2 µg/mL (≈ 1.83 to 3.66 µM) | 4 µg/mL (≈ 7.32 µM) | 4 µg/mL (≈ 7.32 µM) | 2 µg/mL (≈ 3.66 µM) | 4 µg/mL (≈ 7.32 µM) | ≤ 1 µg/mL | 4 µg/mL (≈ 7.32 µM) | ≤ 1 µg/mL | 2 µg/mL (≈ 3.66 µM) | 2 µg/mL (≈ 3.66 µM) | MIC [10]: 2 µg/mL (≈ 3.66 µM); MIC [11]: 2 µg/mL (≈ 3.66 µM); MIC [12]: 4 µg/mL (≈ 7.32 µM); MIC [13]: 4 µg/mL (≈ 7.32 µM); MIC [14]: ≤ 1 µg/mL; MIC [15]: ≤ 1 µg/mL; MIC [16]: 4 µg/mL (≈ 7.32 µM); MIC [17]: 4 µg/mL (≈ 7.32 µM); MIC [18]: 4 µg/mL (≈ 7.32 µM); MIC [19]: 4 µg/mL (≈ 7.32 µM); MIC [20]: 2 µg/mL (≈ 3.66 µM); MIC [21]: ≤ 1 µg/mL |
| C[C@@H](O)[C@H]1C(=O)N2C(C(=O)O)=C(S[C@@H]3CN[C@H](C(=O)N(C)C)C3)[C@H](C)[C@H]12 [Meropenem, meropenem] | 0.5 µg/mL | 0.5 µg/mL | 4 µg/mL | 16 µg/mL | 0.5 µg/mL | 1 µg/mL | 2 µg/mL | 1 µg/mL | 0.5 µg/mL | 0.125 µg/mL | 1 to 2 µg/mL (≈ 2.61 to 5.22 µM) | 4 µg/mL (≈ 10.4 µM) | 2 µg/mL (≈ 5.22 µM) | ≤ 0.5 µg/mL | 2 µg/mL (≈ 5.22 µM) | 1 µg/mL (≈ 2.61 µM) | 4 µg/mL (≈ 10.4 µM) | 1 µg/mL (≈ 2.61 µM) | 1 µg/mL (≈ 2.61 µM) | 1 µg/mL (≈ 2.61 µM) | MIC [10]: 2 to 4 µg/mL (≈ 5.22 to 10.4 µM); MIC [11]: 1 µg/mL (≈ 2.61 µM); MIC [12]: 4 µg/mL (≈ 10.4 µM); MIC [13]: 4 µg/mL (≈ 10.4 µM); MIC [14]: 2 µg/mL (≈ 5.22 µM); MIC [15]: 1 µg/mL (≈ 2.61 µM); MIC [16]: 2 µg/mL (≈ 5.22 µM); MIC [17]: 2 µg/mL (≈ 5.22 µM); MIC [18]: 2 µg/mL (≈ 5.22 µM); MIC [19]: 2 µg/mL (≈ 5.22 µM); MIC [20]: 1 µg/mL (≈ 2.61 µM); MIC [21]: ≤ 0.5 µg/mL |
